From ChEMBL document CHEMBL3580659, “One-pot multicomponent synthesis of indole incorporated thiazolylcoumarins and their antibacterial, anticancer and DNA cleavage studies” (2015)
Calls of active or inactive are those of the source. The rule behind the calls is not given here.

Key:
[1] = test system: BT-549; assay: Cytotoxicity against human BT549 cells assessed as cell growth level at 100 uM after 48 hrs by sulforhodamine B assay; assay type: functional
[2] = test system: MCF7; assay: Cytotoxicity against human MCF7 cells assessed as cell growth level at 10 uM after 48 hrs by sulforhodamine B assay; assay type: functional
[3] = test system: RPMI-8226; assay: Cytotoxicity against human RPMI8226 cells after 48 hrs by sulforhodamine B assay; assay type: functional; settings: RPMI-8226, 48 h
[4] = test system: SK-MEL-28; assay: Cytotoxicity against human SK-MEL-28 cells after 48 hrs by sulforhodamine B assay; assay type: functional; settings: SK-MEL-28, 48 h
[5] = test system: HL-60(TB); assay: Cytotoxicity against human HL-60(TB) cells assessed as cell growth level at 100 uM after 48 hrs by sulforhodamine B assay; assay type: functional
[6] = test system: Escherichia coli; assay: Induction of DNA cleavage of Escherichia coli pUC18 plasmid DNA at 50 ug/ml after 2 hrs by agarose gel elctrophoresis method
[7] = test system: U-251; assay: Cytotoxicity against human U251 cells after 48 hrs by sulforhodamine B assay; assay type: functional; settings: U-251, 48 h
[8] = test system: T47D; assay: Cytotoxicity against human T47D cells assessed as cell growth level at 100 nM after 48 hrs by sulforhodamine B assay; assay type: functional
[9] = test system: COLO 205; assay: Cytotoxicity against human COLO205 cells assessed as cell growth level at 100 uM after 48 hrs by sulforhodamine B assay; assay type: functional
[10] = test system: MDA-MB-231; assay: Cytotoxicity against human MDA-MB-231/ATCC cells assessed as cell growth level at 1 uM after 48 hrs by sulforhodamine B assay; assay type: functional
[11] = test system: HCC 2998; assay: Cytotoxicity against human HCC2998 cells assessed as cell growth level at 10 uM after 48 hrs by sulforhodamine B assay; assay type: functional
[12] = test system: ACHN; assay: Cytotoxicity against human ACHN cells assessed as cell growth level at 100 uM after 48 hrs by sulforhodamine B assay; assay type: functional
[13] = test system: CCRF-CEM; assay: Cytotoxicity against human CCRF-CEM cells assessed as cell growth level at 10 uM after 48 hrs by sulforhodamine B assay; assay type: functional
[14] = test system: ACHN; assay: Cytotoxicity against human ACHN cells assessed as cell growth level at 10 uM after 48 hrs by sulforhodamine B assay; assay type: functional
[15] = test system: MCF7; assay: Cytotoxicity against human MCF7 cells assessed as cell growth level at 10 nM after 48 hrs by sulforhodamine B assay; assay type: functional
[16] = test system: OVCAR-3; assay: Cytotoxicity against human OVCAR3 cells assessed as cell growth level at 100 nM after 48 hrs by sulforhodamine B assay; assay type: functional
[17] = test system: KM12; assay: Cytotoxicity against human KM12 cells assessed as cell growth level at 1 uM after 48 hrs by sulforhodamine B assay; assay type: functional
[18] = test system: SF-295; assay: Cytotoxicity against human SF295 cells assessed as cell growth level at 10 uM after 48 hrs by sulforhodamine B assay; assay type: functional
[19] = test system: HCT-15; assay: Cytotoxicity against human HCT15 cells assessed as cell growth level at 100 nM after 48 hrs by sulforhodamine B assay; assay type: functional
[20] = test system: COLO 205; assay: Cytotoxicity against human COLO205 cells assessed as cell growth level at 1 uM after 48 hrs by sulforhodamine B assay; assay type: functional
[21] = test system: MDA-MB-435; assay: Cytotoxicity against human MDA-MB-435 cells after 48 hrs by sulforhodamine B assay; assay type: functional; settings: MDA-MB-435, 48 h
[22] = test system: A498; assay: Cytotoxicity against human A498 cells assessed as cell growth level at 100 nM after 48 hrs by sulforhodamine B assay; assay type: functional
[23] = test system: HOP-92; assay: Cytotoxicity against human HOP92 cells assessed as cell growth level at 100 nM after 48 hrs by sulforhodamine B assay; assay type: functional
[24] = test system: OVCAR-8; assay: Cytotoxicity against human OVCAR8 cells assessed as cell growth level at 100 uM after 48 hrs by sulforhodamine B assay; assay type: functional
[25] = test system: T47D; assay: Cytotoxicity against human T47D cells assessed as cell growth level at 10 nM after 48 hrs by sulforhodamine B assay; assay type: functional
[26] = test system: OVCAR-3; assay: Cytotoxicity against human OVCAR3 cells assessed as cell growth level at 1 uM after 48 hrs by sulforhodamine B assay; assay type: functional
[27] = test system: HCC 2998; assay: Cytotoxicity against human HCC2998 cells assessed as cell growth level at 100 uM after 48 hrs by sulforhodamine B assay; assay type: functional
[28] = test system: SK-MEL-2; assay: Cytotoxicity against human SK-MEL-2 cells assessed as cell growth level at 100 nM after 48 hrs by sulforhodamine B assay; assay type: functional
[29] = test system: NCI-H322M; assay: Cytotoxicity against human NCI-H322M cells assessed as cell growth level at 100 nM after 48 hrs by sulforhodamine B assay; assay type: functional
[30] = test system: SN12C; assay: Cytotoxicity against human SN12C cells assessed as cell growth level at 100 uM after 48 hrs by sulforhodamine B assay; assay type: functional
[31] = test system: 786-0; assay: Cytotoxicity against human 786-0 cells assessed as cell growth level at 10 nM after 48 hrs by sulforhodamine B assay; assay type: functional
[32] = test system: SF-268; assay: Cytotoxicity against human SF268 cells assessed as cell growth level at 1 uM after 48 hrs by sulforhodamine B assay; assay type: functional
[33] = test system: CAKI-1; assay: Cytotoxicity against human CAKI-1 cells assessed as cell growth level at 100 uM after 48 hrs by sulforhodamine B assay; assay type: functional
[34] = test system: SK-OV-3; assay: Cytotoxicity against human SKOV3 cells after 48 hrs by sulforhodamine B assay; assay type: functional; settings: SK-OV-3, 48 h
[35] = test system: NCI-H460; assay: Cytotoxicity against human NCI-H460 cells assessed as cell growth level at 100 nM after 48 hrs by sulforhodamine B assay; assay type: functional
[36] = test system: SF-539; assay: Cytotoxicity against human SF539 cells assessed as cell growth level at 1 uM after 48 hrs by sulforhodamine B assay; assay type: functional
[37] = test system: MDA-MB-468; assay: Cytotoxicity against human MDA-MB-468 cells assessed as cell growth level at 10 uM after 48 hrs by sulforhodamine B assay; assay type: functional
[38] = test system: BT-549; assay: Cytotoxicity against human BT549 cells assessed as cell growth level at 10 nM after 48 hrs by sulforhodamine B assay; assay type: functional
[39] = test system: SK-MEL-2; assay: Cytotoxicity against human SK-MEL-2 cells assessed as cell growth level at 10 uM after 48 hrs by sulforhodamine B assay; assay type: functional
[40] = test system: OVCAR-8; assay: Cytotoxicity against human OVCAR8 cells assessed as cell growth level at 10 uM after 48 hrs by sulforhodamine B assay; assay type: functional
[41] = read-out: LC50 (the source's name)
[42] = read-out: pLC50 (the source's name) (converted)

Q: With O=c1oc2ccccc2cc1-c1csc(N/N=C/c2c[nH]c3ccccc23)n1 as the compound, how does the Activity [1] read?
A: -88%

Q: And the Activity [2]?
A: 8.91%

Q: And the GI50 ([3]; read-out: GI50)?
A: 0.9 µM

Q: And the CC50 [3, 41]?
A: > 100 µM

Q: And the TGI ([3]; read-out: TGI)?
A: 4.79 µM

Q: And the GI50 ([3]; read-out: pGI50 (converted))?
A: 0.912 µM

Q: And the CC50 [3, 42]?
A: > 100 µM

Q: And the TGI ([3]; read-out: pTGI (converted))?
A: 4.79 µM

Q: And the GI50 ([4]; read-out: GI50)?
A: 3.96 µM

Q: And the CC50 [4, 41]?
A: > 100 µM

Q: What about the TGI ([4]; read-out: TGI) of the same compound?
A: 96.9 µM

Q: What about the GI50 ([4]; read-out: pGI50 (converted)) of the same compound?
A: 3.98 µM

Q: What about the CC50 [4, 42] of the same compound?
A: > 100 µM

Q: What about the TGI ([4]; read-out: pTGI (converted)) of the same compound?
A: 97.7 µM

Q: And the Activity [5]?
A: -23%

Q: And the Activity [6]?
A: Active

Q: And the GI50 ([7]; read-out: GI50)?
A: 1.75 µM

Q: And the CC50 [7, 41]?
A: 77.7 µM

Q: And the TGI ([7]; read-out: TGI)?
A: 5.6 µM

Q: What about the GI50 ([7]; read-out: pGI50 (converted)) of the same compound?
A: 1.74 µM

Q: What about the CC50 [7, 42] of the same compound?
A: 77.6 µM

Q: What about the TGI ([7]; read-out: pTGI (converted)) of the same compound?
A: 5.62 µM

Q: What about the Activity [8] of the same compound?
A: 96%

Q: And the Activity [9]?
A: -36%

Q: What about the Activity [10] of the same compound?
A: 92%

Q: And the Activity [11]?
A: 8.49%

Q: And the Activity [12]?
A: -45%

Q: And the Activity [13]?
A: -26.91%

Q: And the Activity [14]?
A: 10.07%

Q: And the Activity [15]?
A: 98%

Q: What about the Activity [16] of the same compound?
A: 90%

Q: What about the Activity [17] of the same compound?
A: 95%

Q: And the Activity [18]?
A: -25.04%

Q: And the Activity [19]?
A: 96%

Q: What about the Activity [20] of the same compound?
A: 109%

Q: What about the GI50 ([21]; read-out: GI50) of the same compound?
A: 2.1 µM

Q: And the CC50 [21, 41]?
A: 25.2 µM

Q: And the TGI ([21]; read-out: TGI)?
A: 5.47 µM

Q: And the GI50 ([21]; read-out: pGI50 (converted))?
A: 2.09 µM

Q: What about the CC50 [21, 42] of the same compound?
A: 25.1 µM

Q: What about the TGI ([21]; read-out: pTGI (converted)) of the same compound?
A: 5.5 µM

Q: What about the Activity [22] of the same compound?
A: 96%

Q: And the Activity [23]?
A: 94%

Q: What about the Activity [24] of the same compound?
A: -8%

Q: And the Activity [25]?
A: 101%

Q: What about the Activity [26] of the same compound?
A: 61%

Q: And the Activity [27]?
A: -92%

Q: And the Activity [28]?
A: 95%

Q: What about the Activity [29] of the same compound?
A: 102%

Q: And the Activity [30]?
A: -51%

Q: What about the Activity [31] of the same compound?
A: 86%

Q: And the Activity [32]?
A: 86%

Q: What about the Activity [33] of the same compound?
A: -57%

Q: And the GI50 ([34]; read-out: GI50)?
A: 3.95 µM

Q: And the CC50 [34, 41]?
A: > 100 µM

Q: And the TGI ([34]; read-out: TGI)?
A: > 100 µM

Q: What about the GI50 ([34]; read-out: pGI50 (converted)) of the same compound?
A: 3.98 µM

Q: And the CC50 [34, 42]?
A: > 100 µM

Q: What about the TGI ([34]; read-out: pTGI (converted)) of the same compound?
A: 100 µM

Q: What about the Activity [35] of the same compound?
A: 93%

Q: And the Activity [36]?
A: 87%

Q: What about the Activity [37] of the same compound?
A: 2.39%

Q: And the Activity [38]?
A: 95%

Q: What about the Activity [39] of the same compound?
A: -9.49%

Q: What about the Activity [40] of the same compound?
A: 2.99%
